Laboratory results reported in patent US20130085304A1, “PROCESSES FOR PREPARATION OF POLYMORPHIC FORMS OF LACOSAMIDE” (priority 2009, published 2013).

Experiments:
[1] = Effect of time on stability of polymorphic form; type: physicochemical
Protocol: Polymorphic Form A of lacosamide was kept at 0° C. to 5° C. for 3 months.
Polymorphic Form B of lacosamide was kept at 0° C. to 5° C. for 7 months.

[2] = Solubility of polymorphic Form A and Form B in de-ionized water
Protocol: Lacosamide polymorphic Forms A and B were tested for solubility studies by dissolving the Form A or Form B in de-ionized water.

[3] = Drying of Example 3 wet mass at rising temperatures, polymorph checked by XRD; type: physicochemical; conditions: for Product characterized (based on XRD thereof) as: 6 hours
Protocol: Lacosamide (20 g) was added to ethyl acetate (120 ml) at ambient temperature and heated at 75° C. to 80° C. This was cooled to ambient temperature in 1 hour and then filtered. […] The wet mass was dried at the following temperatures each for the specified time and analyzed.

SMILES | Polymorphic form on reanalysis after storage ([1]; kept at 0° C. to 5° C. for 7 months) | Polymorphic form on reanalysis after storage ([1]; kept at 0° C. to 5° C. for 3 months) | Solubility status in de-ionized water (1 in 45 parts) [2] | Product characterized (based on XRD thereof) as ([3]; Example 3 wet mass dried at 35-40 °C) | Product characterized (based on XRD thereof) as ([3]; Example 3 wet mass dried at 40-45 °C) | Product characterized (based on XRD thereof) as ([3]; Example 3 wet mass dried at 45-50 °C) | Product characterized (based on XRD thereof) as ([3]; Example 3 wet mass dried at 50-55 °C) | Product characterized (based on XRD thereof) as ([3]; Example 3 wet mass dried at 55-60 °C) | Product characterized (based on XRD thereof) as ([3]; Example 3 wet mass dried at 60-65 °C) | Change in polymorph pattern on heating ([3]; heated for 36 hours in the temperature range of 35° C. to 65° C.)
COC[C@@H](NC(C)=O)C(=O)NCc1ccccc1 [Form B, (R)-2-acetamido-N-benzyl-3-methoxypropionamide] | characterized as Form B | – | – | – | – | – | – | – | – | –
COC[C@@H](NC(C)=O)C(=O)NCc1ccccc1 [Form A, (R)-2-acetamido-N-benzyl-3-methoxypropionamide] | – | characterized as Form A | Sparingly soluble | Crystalline Form A | Crystalline Form A | Crystalline Form A | Crystalline Form A | Crystalline Form A | Crystalline Form A | no change in polymorph pattern
